Test results reported in PMC3242417 (Bioorganic & medicinal chemistry letters, 2011).
Where two headings read alike, the source gives them in different places.

Experiments:
[1] = system: HCV replicon; test: microbe, parasite or virus in culture; assay type: cell-based; conditions: for EC90: read-out: Anti-HCV EC90; for EC50: read-out: Anti-HCV EC50
[2] = system: HIV-1; test: microbe, parasite or virus in culture; assay type: cell-based; conditions: for EC50: read-out: Anti-HIV-1 EC50
[3] = in vitro
[4] = in vitro; conditions: human
[5] = system: four different cell lines
[6] = system: wild-type HBV; assay type: cell-based; conditions: in vitro
[7] = system: HepG2 cells; test: Toxicity to HepG2 cells; assay type: cell-based; conditions: data not shown
[8] = in vitro; conditions: human; remark: listed apart in the source
[9] = system: Huh-7 cells; test: Cellular pharmacology: intracellular metabolites in Huh-7 cells by LC-MS/MS; assay type: in vitro ADME; conditions: 50 μM, 37°C, 4 h
[10] = system: PBM cells
[11] = system: CEM cells
[12] = system: VERO cells
[13] = Human immunodeficiency virus 1, read-out: Anti-HIV-1 EC90

| Compound | EC90 ([1]; Hepatitis C virus, Huh-7, 96 h) [µM] | EC90 [2, 13] [µM] | IC50 [3] [µM] | CC50 at 96 h [4] [µM] | IC50 [8] [µM] | further results |
| --- | --- | --- | --- | --- | --- | --- |
| C[C@@]1(F)[C@H](O)[C@@H](CO)O[C@@H]1n1cc(F)c2c(N)ncnc21 [Compound 4b] | > 10 | > 100 | > 100 | – | – | – |
| C[C@@]1(F)[C@H](O)[C@@H](CO)O[C@@H]1n1cc(Cl)c2c(N)ncnc21 [Compound 4c] | > 10 | – | – | > 10 | – | – |
| C=Cc1cn([C@@H]2O[C@H](CO)[C@@H](O)[C@@]2(C)F)c2ncnc(N)c12 [Compound 7] | – | – | – | – | – | anti-HIV-1 activity (in words) [2]: anti-HIV-1 activity; toxicity (in words) [5]: exhibited toxicity in the ribosomal RNA assay and in three independent cell lines |
| C[C@@]1(F)[C@H](O)[C@@H](CO)O[C@H]1n1cc(C#Cc2ccccc2)c2c(N)ncnc21 [Compound 17] | > 10 | – | – | – | – | anti-HIV-1 activity (in words) [2]: anti-HIV-1 activity; anti-HBV activity (in words) [6]: weak anti-HBV activity; toxicity to HepG2 cells (in words) [7]: toxicity to HepG2 cells |
| C#Cc1cn([C@@H]2O[C@H](CO)[C@@H](O)[C@@]2(C)F)c2ncnc(N)c12 [Compound 13] | > 10 | – | – | > 10 | > 100 | – |
| C[C@@]1(F)[C@H](O)[C@@H](CO)O[C@H]1n1cc(F)c2c(N)ncnc21 [Compound 5b] | – | – | > 100 | > 10 | – | – |
| C[C@@]1(F)[C@H](O)[C@@H](CO)O[C@@H]1n1cc(C#Cc2ccccc2)c2c(N)ncnc21 [Compound 16] | – | – | – | – | – | anti-HIV-1 activity (in words) [2]: anti-HIV-1 activity; anti-HBV activity (in words) [6]: no anti-HBV activity |
| C=Cc1cn([C@H]2O[C@H](CO)[C@@H](O)[C@@]2(C)F)c2ncnc(N)c12 [Compound 6] | – | – | – | – | – | anti-HCV activity (in words) ([1]; HCV replicon): moderate anti-HCV activity; anti-HIV-1 activity (in words) [2]: anti-HIV-1 activity; toxicity (in words) [5]: strong toxicity across all cell lines |
| C#Cc1cn([C@H]2O[C@H](CO)[C@@H](O)[C@@]2(C)F)c2ncnc(N)c12 [Compound 12] | – | > 100 | – | – | > 100 | – |
| C[C@@]1(F)[C@H](O)[C@@H](CO)O[C@@H]1n1cc(I)c2c(N)nc(N)nc21 [Compound 4g] | > 10 | – | – | > 10 | – | – |
| CCc1cn([C@H]2O[C@H](CO)[C@@H](O)[C@@]2(C)F)c2ncnc(N)c12 [Compound 8] | – | > 100 | – | – | > 100 | – |
| C[C@@]1(F)[C@H](O)[C@@H](CO)O[C@@H]1n1ccc2c(N)nc(N)nc21 [Compound 4f] | > 10 | – | > 100 | > 10 | > 100 | – |
| COc1ncnc2c1ccn2[C@H]1O[C@H](CO)[C@@H](O)[C@@]1(C)F [Compound 4i] | > 10 | – | > 100 | – | > 100 | – |
| C[C@@]1(F)[C@H](O)[C@@H](CO)O[C@H]1n1ccc2c(N)nc(N)nc21 [Compound 5f] | – | > 100 | > 100 | – | > 100 | deamination to 7-deazaguanosine nucleoside or nucleoside phosphate [9]: no deamination had occurred; nucleoside triphosphate found intracellularly [9]: only a trace amount of nucleoside triphosphate was found |
| COc1ncnc2c1ccn2[C@@H]1O[C@H](CO)[C@@H](O)[C@@]1(C)F [Compound 5i] | – | – | > 100 | > 10 | > 100 | – |
| C#Cc1cn([C@H]2O[C@H](CO)[C@@H](O)[C@@]2(C)F)c2nc(N)nc(N)c12 [Compound 14] | – | – | – | – | – | anti-HIV-1 activity (in words) [2]: anti-HIV-1 activity; anti-HBV activity (in words) [6]: no anti-HBV activity |
| C[C@@]1(F)[C@H](O)[C@@H](CO)O[C@@H]1n1cc(Br)c2c(N)ncnc21 [Compound 4d] | > 10 | > 100 | – | – | – | – |
| CCOC(=O)[C@H](C)NP(=O)(OC[C@H]1O[C@@H](n2ccc3c(N)nc(N)nc32)[C@](C)(F)[C@@H]1O)Oc1ccccc1 (some centres unmarked) [Compound 20] | – | – | – | – | – | deamination to 7-deazaguanosine nucleoside or nucleoside phosphate [9]: no deamination had occurred; nucleoside triphosphate found intracellularly [9]: only a trace amount of nucleoside triphosphate was found |
| CCc1cn([C@@H]2O[C@H](CO)[C@@H](O)[C@@]2(C)F)c2ncnc(N)c12 [Compound 9] | > 10 | – | – | > 10 | > 100 | – |
| CNc1ncnc2c1c(F)cn2[C@@H]1O[C@H](CO)[C@@H](O)[C@@]1(C)F [Compound 5h] | – | – | > 100 | – | > 100 | – |
| 4-amino-7-iodo-1-(2-deoxy-2-fluoro-2-C-methyl-β-D-ribofuranosyl)-1H-pyrrolo[2,3-d]pyrimidine [Compound 5e] | – | – | – | – | – | anti-HCV activity (in words) ([1]; HCV replicon): modest anti-HCV activity; EC50 ([1]; HCV replicon, 96 h): 1.1 µM; EC90 ([1]; HCV replicon, 96 h): > 33 µM; EC50 [2]: 94 µM; EC90 ([2]; read-out: Anti-HIV-1 EC90): > 100 µM; IC50 [10]: 53.2 µM; IC50 [11]: 24 µM; IC50 [12]: 21.4 µM; toxicity (in words) [5]: toxicity |
| C[C@@]1(F)[C@H](O)[C@@H](CO)O[C@@H]1n1ccc2c(N)ncnc21 [Compound 4a] | > 10 | > 100 | > 100 | > 10 | > 100 | – |
| COC(=O)/C=C/c1cn([C@@H]2O[C@H](CO)[C@@H](O)[C@@]2(C)F)c2ncnc(N)c12 [Compound 11] | – | – | > 100 | > 10 | > 100 | – |
| 4-amino-7-iodo-1-(2-deoxy-2-fluoro-2-C-methyl-α-D-ribofuranosyl)-1H-pyrrolo[2,3-d]pyrimidine [Compound 4e] | – | – | – | – | – | anti-HCV activity (in words) ([1]; HCV replicon): modest anti-HCV activity; EC50 ([1]; HCV replicon, 96 h): 7 µM; EC90 ([1]; HCV replicon, 96 h): 24.9 µM; EC50 [2]: > 100 µM; EC90 ([2]; read-out: Anti-HIV-1 EC90): > 100 µM; anti-HBV activity (in words) [6]: weak anti-HBV activity; toxicity to HepG2 cells (in words) [7]: toxicity to HepG2 cells; IC50 [10]: > 100 µM; IC50 [11]: 40.9 µM; IC50 [12]: 65.9 µM; toxicity (in words) [5]: toxicity |
| CNc1ncnc2c1c(F)cn2[C@H]1O[C@H](CO)[C@@H](O)[C@@]1(C)F [Compound 4h] | > 10 | > 100 | > 100 | > 10 | > 100 | – |
| COC(=O)/C=C/c1cn([C@H]2O[C@H](CO)[C@@H](O)[C@@]2(C)F)c2ncnc(N)c12 [Compound 10] | > 10 | – | > 100 | – | > 100 | anti-HIV-1 activity (in words) [2]: strong anti-HIV-1 activity; anti-HBV activity (in words) [6]: no anti-HBV activity; concentration up to which no cytotoxicity was observed ([5]; four different cell lines): > 100 µM |
| C#Cc1cn([C@@H]2O[C@H](CO)[C@@H](O)[C@@]2(C)F)c2nc(N)nc(N)c12 [Compound 15] | > 10 | – | – | > 10 | – | – |
| C[C@@]1(F)[C@H](O)[C@@H](CO)O[C@H]1n1ccc2c(N)ncnc21 [Compound 5a] | – | – | > 100 | – | > 100 | – |
| C[C@@]1(F)[C@H](O)[C@@H](CO)O[C@H]1n1cc(I)c2c(N)nc(N)nc21 [Compound 5g] | – | > 100 | – | – | – | – |
| C[C@@]1(F)[C@H](O)[C@@H](CO)O[C@H]1n1cc(Cl)c2c(N)ncnc21 [Compound 5c] | – | > 100 | – | – | – | – |
